This experiment deals with HMPV clinical isolate A2 strain TN 94-49. Nature of the experiment: HMPV antiviral assay, Method 2 (LLC-MK2 cells with CP-100-356, ATP-Lite). It is filed as cell-based. The settings on record: human metapneumovirus. The essentials:
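EC50 comes from a four-parameter fit of percent cell viability (ATP-Lite, normalized to virus-only and cell-only wells) after 7 days at 37 °C. Infection used HMPV A2 TN 94-49 at MOI 0.16 in LLC-MK2 cells, with 2 μM P-gp inhibitor CP-100-356 and 2 μg/mL TPCK-trypsin final; dose range 200 nM top, 2.5-fold, 10 points, duplicate.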

Where [1] appears, read: hMPV A2 TN/94-49, LLC-MK2 cells with CP-100-356, Method 2.
Where [2] appears, read: 168 h, hMPV A2 TN/94-49, LLC-MK2 cells with 4 μM CP-100-356, 7 days, ATP-Lite.

The structures appear in SMILES notation.

Usually EC50 stands for the concentration at which the effect is half-maximal. Higher therefore signals a need for much substance.

`COc1cc(C(=O)NC[C@@](O)(c2ccccc2)c2cc3c(c(-c4cccc(Cl)c4Cl)n2)OC[C@]3(C)C(N)=O)cc2oc(C)nc12` [Example 95]: the EC50 under setting [1] was < 200 nM. `COc1cc(C(=O)NC[C@](O)(c2cc3c(c(-c4cc(Cl)c(F)cc4F)n2)OC[C@]3(C)C(N)=O)c2ccn(C)n2)cc2cn(C3CC3)nc12` [Example 480]: under setting [1], the EC50 is < 200 nM. As for `COc1cc(C(=O)NC[C@](O)(c2cc3c(c(-c4ccnc(C5CCOCC5)c4Cl)n2)OC[C@]3(C)C(N)=O)C2CC2)cc2cn(C(F)F)nc12` [Example 904], under setting [2], the EC50 is > 200 nM. Take `COc1cc(C(=O)NCC(O)(c2cccc(F)c2)c2cc3c(c(-c4cccc(Cl)c4C#N)n2)OC[C@]3(C)C(N)=O)cc2cn(C3(F)CC3)nc12` (stereo partly shown) [Example 399]: the EC50 under setting [1] is > 200 nM. On to `CC(C)c1nccc(-c2nc([C@@](O)(CNC(=O)c3cc(OC4CC4)c4nn(C5(F)CC5)cc4c3)C3CC3)cc3c2OC[C@]3(C)C(N)=O)c1Cl` [Example 912], for which the EC50 under setting [2] is > 200 nM. As for `COc1cc(C(=O)NC[C@](O)(c2cc3c(c(-n4ncc5c4CCCC5)n2)OC[C@]3(C)C(N)=O)C2CC2)cc2cn(C(F)F)nc12` [Example 641], the EC50 under setting [2] is > 200 nM.

For the molecule `COc1cc(C(=O)NC[C@](O)(c2cc3c(c(-c4ccnc(C(F)(F)F)c4)n2)OC[C@]3(C)C(N)=O)C2CC2)cc2cn(C3(F)CC3)nc12` [Example 761], under setting [2], the EC50 is < 200 nM. Regarding `[2H]C([2H])([2H])NC(=O)[C@@]1(C)COc2c1cc([C@@](O)(CNC(=O)c1cc(OC)c3nn(C4(F)CC4)cc3c1)c1ccccc1)nc2-c1cc(Cl)c(F)cc1F` [Example 109], under setting [1], the EC50 was < 200 nM. The same measure, in the same setting: with `COc1cc(C(=O)NC[C@@](O)(c2ccccc2)c2cc3c(c(-c4cc(Cl)c(F)cc4F)n2)OC[C@]3(C)C(N)=O)cc2oc(C3(F)CC3)nc12` [Example 241] the figure was < 200 nM; with `C[C@]1(C(N)=O)COc2c1cc([C@@](O)(CNC(=O)c1ccc3nc(-c4ccccc4)oc3c1)c1ccccc1)nc2-c1cc(Cl)c(F)cc1F` [Example 227], > 200 nM. Take `COc1cc(C(=O)NC[C@](O)(c2cc3c(c(-n4ccc5c(F)cccc54)n2)OC[C@]3(C)C(N)=O)C(F)(F)F)cc2sc(N)nc12` [Example 691]: under setting [2], the EC50 was < 200 nM. Take `COc1cc(C(=O)NC[C@](O)(c2cc3c(c(-c4ccn5nc(C)cc5c4)n2)OC[C@]3(C)C(N)=O)C2CC2)cc2cn(C3CC3)nc12` [Example 838]: under setting [2], the EC50 was > 200 nM. As to `COc1nccc(-c2nc([C@@](O)(CNC(=O)c3cc(OC)c4nn(C(F)F)cc4c3)c3ccc(F)cc3)cc3c2OC[C@]3(C)C(N)=O)c1Cl` [Example 698], the EC50 under setting [2] is < 200 nM. Still for that read-out and setting: with `COc1cc(C(=O)NC[C@](O)(c2cc3c(c(-n4ncc5c(F)cccc54)n2)OC[C@]3(C)C(N)=O)C2CC2)cc2cc(Cl)c(C)nc12` [Example 899] the figure was > 200 nM; with `COc1cc(C(=O)NC[C@@](O)(c2ccc(F)cc2)c2cc3c(c(-c4ccnc(C)c4Cl)n2)OC[C@]3(C)C(N)=O)cc2cn(C3CC3)nc12` [Example 646], < 200 nM. Regarding `COc1cc(C(=O)NC[C@](O)(c2cc3c(c(-c4ccnc(F)c4C)n2)OC[C@]3(C)C(N)=O)C2CC2)cc2cn(C3CC3)nc12` [Example 383], under setting [1], the EC50 was < 200 nM. Consider `COc1cc(C(=O)NC[C@@](O)(c2cccc(F)c2)c2cc3c(c(-c4ccnc(C(F)F)c4Cl)n2)OC[C@]3(C)C(N)=O)cc2cn(C3CC3)nc12` [Example 565], for which the EC50 under setting [1] is < 200 nM. Same read-out and setting: the figure for `COc1nccc(-c2nc([C@@](O)(CNC(=O)c3cc(OC4CC4)c4nn(C5(F)CC5)cc4c3)C(F)(F)F)cc3c2OC[C@]3(C)C(N)=O)c1Cl` [Example 588] is < 200 nM; for `COc1cc(C(=O)NC[C@](O)(c2cc3c(c(-c4c(C)cncc4F)n2)OC[C@]3(C)C(N)=O)C2CC2)cc2cn(C3CC3)nc12` [Example 435] it is < 200 nM. For `COc1cc(C(=O)NC[C@](O)(c2cc3c(c(-c4ccnc5c4OCCO5)n2)OC[C@]3(C)C(N)=O)C2CC2)cc2cn(C3CC3)nc12` [Example 812], the EC50 under setting [2] is > 200 nM. In the case of `COc1cc(C(=O)NC[C@](O)(c2cc3c(c(-c4cc(C(F)(F)F)c(F)cc4F)n2)OC[C@]3(C)C(N)=O)C(F)(F)F)cc2cn(C3CC3)nc12` [Example 395], under setting [1], the EC50 is < 200 nM. The same measure, in the same setting: with `C[C@]1(C(N)=O)COc2c1cc([C@@](O)(CNC(=O)c1cc(OC3CC3)c3nn(C4(F)CC4)cc3c1)C1CC1)nc2-c1ccc(F)c(Cl)c1` [Example 112] the figure was < 200 nM; with `COc1cc(C(=O)NC[C@](O)(c2cc3c(c(-c4ccnc(F)c4Cl)n2)OC[C@]3(C)C(N)=O)C2CC2)cc2oc(C3CC3)nc12` [Example 208], < 200 nM; with `COc1cc(C(=O)NC[C@@](O)(c2ccccc2)c2cc3c(c(-c4ccnc(C(F)F)c4Cl)n2)OC[C@]3(C)C(N)=O)cc2oc(C3CC3)nc12` [Example 564], < 200 nM. For `COc1cc(C(=O)NC[C@](O)(c2cc3c(c(-c4cc(C(F)(F)F)ncc4F)n2)OC[C@]3(C)C(N)=O)C2CC2)cc2cc(C3CC3)nn12` [Example 354], the EC50 under setting [1] was < 200 nM. For `COc1cc(C(=O)NC[C@](O)(c2cc3c(c(-c4cc(F)ncc4F)n2)OC[C@]3(C)C(N)=O)C2CC2)cc2cn(C3CC3)nc12` [Example 382], under setting [1], the EC50 is < 200 nM. As for `C[C@]1(C(N)=O)COc2c1cc([C@@](O)(CNC(=O)c1cc(OC3CC3)c3ncc(Cl)cc3c1)C1CC1)nc2-c1cc(C(F)(F)F)c(F)cc1F` [Example 317], the EC50 under setting [1] is < 200 nM. Same read-out and setting: the figure for `COc1cc(C(=O)NC[C@@](O)(c2cc3c(c(-n4ccc5ccccc54)n2)OC[C@]3(C)C(N)=O)C2CC2)cc2cn(C3CC3)nc12` [Example 444] is > 200 nM. Turning to `COc1cc(C(=O)NC[C@@](O)(c2ccccc2)c2cc3c(c(-n4ncc5c(F)cccc54)n2)OC[C@]3(C)C(N)=O)cn2cc(C3CC3)nc12` [Example 634], the EC50 under setting [2] was < 200 nM. For the molecule `COc1cc(C(=O)NC[C@@](O)(c2cnc(C3CC3)nc2)c2cc3c(c(-c4cc(Cl)c(F)cc4F)n2)OC[C@]3(C)C(N)=O)cc2cn(C3CC3)nc12` [Example 478], the concentration giving a half-maximal response (EC50) under setting [1] is < 200 nM. Consider `COc1cc(C(=O)NC[C@](O)(c2cc3c(c(-c4cc(C(F)(F)F)ncc4F)n2)OC[C@]3(C)C(N)=O)C(F)(F)F)cc2cn(C3CC3)nc12` [Example 845], for which the EC50 under setting [2] is < 200 nM. Same read-out and setting: the figure for `COc1nccc(-c2nc([C@@](O)(CNC(=O)c3cc(OC)c4nn(C(F)F)cc4c3)C(F)(F)F)cc3c2OC[C@]3(C)C(N)=O)c1Cl` [Example 798] is < 200 nM. Turning to `C[C@]1(C(N)=O)COc2c1cc([C@@](O)(CNC(=O)c1ccc3nc(C4CC4)oc3c1)c1ccccc1)nc2-c1ccc2c(c1)OC(F)(F)O2` [Example 199], the EC50 under setting [1] is > 200 nM. On to `C[C@]1(C(N)=O)COc2c1cc([C@@](O)(CNC(=O)c1cc(Cl)c3nn(C4CC4)cc3c1)C(F)(F)F)nc2-c1ccnc(C(F)F)c1Cl` [Example 549], for which the EC50 under setting [1] was < 200 nM. With `COc1cc(C(=O)NC[C@@](O)(c2cc3c(c(-n4ccc5cnccc54)n2)OC[C@]3(C)C(N)=O)C2CC2)cc2cn(C3CC3)nc12` [Example 840], the EC50 under setting [2] is > 200 nM. In the case of `COc1cc(C(=O)NCC(O)(c2ccc(F)cn2)c2cc3c(c(-c4cc(Cl)c(F)cc4F)n2)OC[C@]3(C)C(N)=O)cc2cn(C3CC3)nc12` (stereo partly shown) [Example 210], under setting [1], the EC50 was < 200 nM. Take `COc1cc(C(=O)NC[C@](O)(c2cc3c(c(-c4ccnc5ccccc45)n2)OC[C@]3(C)C(N)=O)C2CC2)cc2cn(C3CC3)nc12` [Example 727]: the EC50 under setting [2] is < 200 nM.

Values taken from patent US20240368174A1, “Antiviral Heterocyclic Compounds” (Enanta Pharmaceuticals, Inc., priority 2023, published 2024).
